{"source": "patent US20150335678A1", "about": "“METHOD OF ACTIVATING STEM CELLS IN AN ANIMAL AND THE USE OF CHLORINE DIOXIDE FOR PREPARING MEDICINES FOR ACTIVATING STEM CELLS IN AN ANIMAL” (priority 2012, published 2015)", "key": {"localized psoriasis": {"system": "localized psoriasis", "assay": "Localized psoriasis patients, cure and recurrence vs cream control (Example 8)", "type": "in vivo, human", "source_text": "The subjects consisted of 86 patients with localized psoriasis aged from 28 to 68 years old, among which 43 patients were randomly assigned to treatment group, and 43 to control group. The disease broke out continuously with more than nine months of course of disease. The purpose of the clinical test was explained to all subjects and their consent was obtained before conducting the clinical test. Treatment group: 29 male patients (74.36%), 10 female (25.64%); age (49.05±14.57); course of disease (12±9) years. Control group: 28 male patients (68.29%), 13 female patients (31.71%); age (47.05±16.25); course of disease (12±10) years.\nThe solution was immediately smeared over the affected region, once a day for 10 to 15 days, and then stop administration. If it relapsed, reusing it again. […] If it relapsed, reusing it again. The due time was six months.\nThe criteria for measuring the effect: Take PASI as reference.\nA. The areas: grading from 0 to 6 for the four body parts respectively: area: 0=no rash;\nB. Severity of the clinic: erythema; infiltration; scale. Grading each characteristics from 0 to 4 point; 0=no; 1=mild; 2=moderate; 3=severe; 4=extremely severe. Calculating the grades of each parts and working out the total points. The criteria of the effect (PASI decrease percentage): recovery score: ≧95%; excellent score both ≧61% and <95%; improved score both ≧20% and <60%; No effect score<20%.\nThe example was enumeration data and a Chi-square test was conducted to compare the cure rate and recurrence rate of the two groups."}, "[1]": {"system": "BrdU-positive cells (neural stem cells and neural progenitor cells)", "assay": "BrdU-positive and BrdU-positive/nestin-positive (proliferating) cells in the SVZ region", "type": "in vivo, Sprague-Dawley rats", "details": "for number of BrdU-positive cells in the SVZ region, proliferation (mean±SD): BrdU on day 5, 6, 12, 13, 19, 20", "description": "Male Sprague-Dawley rats with the age of 12 weeks and weight of 250^˜280 g were used in the experiment after acclimating for a week.\nA middle cerebral artery occlusion model was first established in compliance with the method of Longa E Z et al. (Longa E Z, et al. Reversible middle cerebral artery occlusion without craniectomy in rats. Stroke 20:84-91, 1989). More specifically, 0.36 g/kg of 10% chloral hydrate was administered intraperitoneally to rats which had been fasted for 12 hours (although given free access to water) to anesthetize the rats. Next, a midline incision was made in the neck to expose the right common carotid artery. Then, the internal carotid artery and external carotid artery were separated, the posterior carotid artery, which is a branch of the external carotid artery, and the thyroidea arteria were coagulated and severed, the external carotid artery was ligated at the branch of the lingual artery and maxillary artery, a small puncture was formed in the external carotid artery, 4-0 Nylon suture was passed through the common carotid artery from the puncture, and gradually inserted into the internal carotid artery until there was resistance. The length of the Nylon suture was about 18^˜20 mm from the branch of the common carotid artery. As a result of occluding the middle cerebral artery with Nylon suture, an ischemic state was applied for 2 hours to create a middle cerebral artery occlusion model.\nA cerebral ischemia/reperfusion injury model was established by removing the Nylon suture from the middle cerebral artery of the occlusion model and following reperfusion of blood.\nThe first solution was a mixed solution made of sodium chlorite with the concentration of 7.47% and sodium chloride with the concentration of 1.59% with deionized water; the second solution was made of citric acid with the concentration of 16.7% with deionized water. Same volume of solutions were taken out from different vessels with different volumes and mixed up. Allow the solution to mix for 3-5 minutes and dilute it five times with normal saline, and then filter it with 0.22 μm filter membrane of double-deck. The solution was immediately put into injector. The solution was prepared once being used.\nTreatment group (120 rats): A cerebral ischemia/reperfusion injury model was established for the rats already. To administer chlorine dioxide solution everytime that prepared from procedure (3) through carotid artery after the second day the model has established, once a day for total ten days.\nOn day 5, 6, 12, 13, 19 and 20 after the model established, 50 mg/kg of 5-bromodeoxyuridine was injected intraperitoneally into 30 rats in each group. Because BrdU is a thymidine analog, it can incorporate into the DNA of cells during the course of cell proliferation (DNA synthesis). Thus, cell proliferation can be analyzed by detecting the amount of intracellular BrdU. The rats were autopsied on day 7, 14 and 21 after the model established for preparation of frozen brain sections. The presence of BrdU-positive cells by immunochemical stain, and the presence of BrdU-positive/nestin-positive cells by double-immunofluorescent stain in the SVZ region were analyzed.\nThe presence of BrdU-positive cells was analyzed using mouse anti-rat BrdU monoclonal antibody.\nThe presence of BrdU-positive/nestin-positive cells was analyzed by double-immunofluorescent stain using a combination of primary antibody of goat anti-rat BrdU polyclonal antibody and secondary antibody of FITC-labeled rabbit anti-goat antibody, and a combination of primary antibody of mouse anti-rat nestin monoclonal antibody and secondary antibody of Rho-labeled rabbit anti-mouse antibody.\nBRt(%)=(Bt−St)/(Mt−St)×100"}, "[2]": {"system": "hip arthritis (osteoarthritis)", "assay": "Hip arthritis patients: VAS pain intensity, WOMAC, tolerance (Example 5)", "type": "in vivo, human", "details": "11 hip arthritis patients; for WOMAC mean (±SD): beginning 55.03 (±26.63); for Doctor VAS pain intensity, mean (±SD), 0-100: beginning 55.23 (±9.66); for Patients VAS pain intensity, mean (±SD), 0-100: beginning 58.32 (±8.25)", "description": "To smear the solution over the skin of hip arthritis with swab immediately, once a day for consecutive 20 days. Then stop the administration for three months, and then began continuous treatment for 20 days. Clean and disinfect the regions before treatment, conduct local anesthetic 30 minutes before the operation.\nThe subjects who joined in the treatment group as volunteers consisted of 11 patients with hip arthritis (5 male, aged from 40 to 70 years old and 6 female, aged from 40 to 65 years old.). Case histories were recorded at the third and the sixth month by collecting personal and data of human body (height, body weight, BMI, blood pressure and heart rate.) Then evaluate the following parameters:\nPain intensity: VAS was used, ranging from 0 (normal) to 100 (maximum intensity), it was conducted by the doctor and patient:\nSeriousness of the illness: Womac, namely, self-assessment of hip arthritis that consists of 24 items was used to detect the development and effect of the treatment."}, "wound of rabbit": {"system": "wound of rabbit", "details": "Jin Wei et al. 2011; cited from earlier work"}, "rat": {"system": "rat", "details": "ClO2 276.5 mg/L, cited from earlier work"}, "[3]": {"details": "after 6 months, 43 patients per group"}, "[4]": {"details": "follow-up average 6 months, 35 treatment, 32 control patients"}}, "data": [{"smiles": "[O][Cl+][O-]", "note": "[chlorine dioxide solution, chlorine dioxide]", "values": [{"measurement": "No. effective patients", "setting": "localized psoriasis; [3]", "value": "0 (0) ^"}, {"measurement": "No. ineffective patients", "setting": "localized psoriasis; [3]", "value": "0 (0)"}, {"measurement": "effective patients percentage", "setting": "localized psoriasis; [3]", "value": "0 (0) ^ %"}, {"measurement": "improvement Percentage", "setting": "localized psoriasis; [3]", "value": 4.6, "unit": "%"}, {"measurement": "ineffective patients percentage", "setting": "localized psoriasis; [3]", "value": "0 (0) %"}, {"measurement": "No. Cure", "setting": "localized psoriasis; after 6 months, 43 patients per group, smeared once a day 10 to 15 days, repeated on relapse, at most three treatments, test solution NaClO2 10%/NaCl 2.5% + citric acid 22% 1:1, PASI-based", "value": 41}, {"measurement": "Cure Percentage", "setting": "localized psoriasis; after 6 months, 43 patients per group, topical once a day 10 to 15 days, repeated on relapse, P<0.01 between groups", "value": 95.3, "unit": "%"}, {"measurement": "No. non recurrence patients", "setting": "localized psoriasis; [4]", "value": 33}, {"measurement": "non recurrence patients percentage", "setting": "localized psoriasis; [4]", "value": 94.3, "unit": "%"}, {"measurement": "No. recurrence patients", "setting": "localized psoriasis; follow-up average 6 months, 35 treatment, 32 control patients followed", "value": 2}, {"measurement": "recurrence patients percentage (recurrence rate)", "setting": "localized psoriasis; follow-up average 6 months, 35 treatment, 32 control patients, P<0.01 between groups", "value": 5.7, "unit": "%"}, {"measurement": "BRt: BrdU-positive cells (proliferation) in treatment group relative to model group = 100%", "setting": "[1]; Day 7", "value": 157.4, "unit": "%"}, {"measurement": "number of BrdU-positive cells in the SVZ region, proliferation (mean±SD)", "setting": "[1]; Day 7, model group 136.56 ± 9.93, sham 52.8 ± 3.85, diluted solution via carotid artery once a day, ten days", "value": "184.61 ± 12.3", "unit": "No. cells/mm2"}, {"measurement": "BRt: BrdU-positive cells (proliferation) in treatment group relative to model group = 100%", "setting": "[1]; Day 14", "value": 156.9, "unit": "%"}, {"measurement": "number of BrdU-positive cells in the SVZ region, proliferation (mean±SD)", "setting": "[1]; Day 14, model group 328.6 ± 12.5, sham 33.9 ± 2.95", "value": "496.2 ± 30.6", "unit": "No. cells/mm2"}, {"measurement": "BRt: BrdU-positive cells (proliferation) in treatment group relative to model group = 100%", "setting": "[1]; Day 21", "value": 141.2, "unit": "%"}, {"measurement": "number of BrdU-positive cells in the SVZ region, proliferation (mean±SD)", "setting": "[1]; Day 21, model group 279.9 ± 12.8, sham 23.9 ± 1.95", "value": "385.3 ± 20.9", "unit": "No. cells/mm2"}, {"measurement": "presence of proliferating nestin-positive/BrdU-positive cells in the SVZ region", "setting": "[1]; treatment group, double-immunofluorescent stain", "value": "confirmed"}, {"measurement": "time until pain and itch during administration disappeared completely", "setting": "[2]; topical with DMSO", "value": "about an hour"}, {"measurement": "tolerance", "setting": "[2]; topical with DMSO", "value": "without local or systemic anaphylactic reaction"}, {"measurement": "WOMAC mean (±SD)", "setting": "[2]; sixth month, topical with DMSO", "value": "6.54 (±5.86)"}, {"measurement": "Doctor VAS pain intensity, mean (±SD), 0-100", "setting": "[2]; sixth month, topical with DMSO", "value": "7.11 (±6.93)"}, {"measurement": "Patients VAS pain intensity, mean (±SD), 0-100", "setting": "[2]; sixth month, topical with DMSO", "value": "6.32 (±6.53)"}, {"measurement": "WOMAC mean (±SD)", "setting": "[2]; third month, topical with DMSO", "value": "20.11 (±22.53)"}, {"measurement": "Doctor VAS pain intensity, mean (±SD), 0-100", "setting": "[2]; third month, topical with DMSO", "value": "20.03 (±7.32)"}, {"measurement": "Patients VAS pain intensity, mean (±SD), 0-100", "setting": "[2]; third month, NaClO2 8%/NaCl 2% + citric acid 15% 1:1, DMSO 1:1, smeared once a day 20 days, three months off, 20 days", "value": "18.24 (±7.25)"}, {"measurement": "effect on wound in animal test", "setting": "wound of rabbit", "value": "speeding haemostasis and promoting healing on wound"}, {"measurement": "accumulative toxicity classification of aqueous solution", "setting": "rat; NaClO2 200 mg/L, NaClO3", "value": "non-obvious accumulative toxic"}, {"measurement": "toxicity classification of aqueous solution", "setting": "rat; NaClO2 and NaClO3 200 mg/L, ClO2 mixed solution total concentration 553 mg/L", "value": "actually non-toxic"}]}]}
